Values of other authors in PMC11286589, “Population pharmacokinetics and exposure–response analyses of SAF-189s in Chinese patients with ALK+/ROS1+ non-small cell lung cancer” (Frontiers in Pharmacology, 2024).

Details: cited from earlier work

Cc1cc(Nc2ncc(Cl)c(Nc3ccccc3S(=O)(=O)C(C)C)n2)c(OC(C)C)cc1C1CCNCC1 [ceritinib]
incidence rate of hyperglycemia (FIH trial, ref Khozin et al., 2015): 49%

C[C@@H](Oc1cc(-c2cnn(C3CCNCC3)c2)cnc1N)c1c(Cl)ccc(F)c1Cl [crizotinib]
effect on glucose tolerance in patients (current clinical use, ref Camidge et al., 2018, Seto et al., 2019, Wolf et al., 2022): no effects on glucose tolerance
